Results: US20240083897A1, “GCN2 MODULATING COMPOUNDS AND USES THEREOF” (HiberCell, Inc., priority 2021, published 2024)
Where two headings read alike, the source gives them in different places.

Biological target: GCN2 (Homo sapiens (Human), UniProt Q9P2K8)
Assay: TR-FRET biochemical assay for inhibition of GCN2
[1] = GCN2 2 nM, 100 nM GFP-eIF2a, 150 μM ATP, TR-FRET

GCN2, sequence (Q9P2K8 whole entry): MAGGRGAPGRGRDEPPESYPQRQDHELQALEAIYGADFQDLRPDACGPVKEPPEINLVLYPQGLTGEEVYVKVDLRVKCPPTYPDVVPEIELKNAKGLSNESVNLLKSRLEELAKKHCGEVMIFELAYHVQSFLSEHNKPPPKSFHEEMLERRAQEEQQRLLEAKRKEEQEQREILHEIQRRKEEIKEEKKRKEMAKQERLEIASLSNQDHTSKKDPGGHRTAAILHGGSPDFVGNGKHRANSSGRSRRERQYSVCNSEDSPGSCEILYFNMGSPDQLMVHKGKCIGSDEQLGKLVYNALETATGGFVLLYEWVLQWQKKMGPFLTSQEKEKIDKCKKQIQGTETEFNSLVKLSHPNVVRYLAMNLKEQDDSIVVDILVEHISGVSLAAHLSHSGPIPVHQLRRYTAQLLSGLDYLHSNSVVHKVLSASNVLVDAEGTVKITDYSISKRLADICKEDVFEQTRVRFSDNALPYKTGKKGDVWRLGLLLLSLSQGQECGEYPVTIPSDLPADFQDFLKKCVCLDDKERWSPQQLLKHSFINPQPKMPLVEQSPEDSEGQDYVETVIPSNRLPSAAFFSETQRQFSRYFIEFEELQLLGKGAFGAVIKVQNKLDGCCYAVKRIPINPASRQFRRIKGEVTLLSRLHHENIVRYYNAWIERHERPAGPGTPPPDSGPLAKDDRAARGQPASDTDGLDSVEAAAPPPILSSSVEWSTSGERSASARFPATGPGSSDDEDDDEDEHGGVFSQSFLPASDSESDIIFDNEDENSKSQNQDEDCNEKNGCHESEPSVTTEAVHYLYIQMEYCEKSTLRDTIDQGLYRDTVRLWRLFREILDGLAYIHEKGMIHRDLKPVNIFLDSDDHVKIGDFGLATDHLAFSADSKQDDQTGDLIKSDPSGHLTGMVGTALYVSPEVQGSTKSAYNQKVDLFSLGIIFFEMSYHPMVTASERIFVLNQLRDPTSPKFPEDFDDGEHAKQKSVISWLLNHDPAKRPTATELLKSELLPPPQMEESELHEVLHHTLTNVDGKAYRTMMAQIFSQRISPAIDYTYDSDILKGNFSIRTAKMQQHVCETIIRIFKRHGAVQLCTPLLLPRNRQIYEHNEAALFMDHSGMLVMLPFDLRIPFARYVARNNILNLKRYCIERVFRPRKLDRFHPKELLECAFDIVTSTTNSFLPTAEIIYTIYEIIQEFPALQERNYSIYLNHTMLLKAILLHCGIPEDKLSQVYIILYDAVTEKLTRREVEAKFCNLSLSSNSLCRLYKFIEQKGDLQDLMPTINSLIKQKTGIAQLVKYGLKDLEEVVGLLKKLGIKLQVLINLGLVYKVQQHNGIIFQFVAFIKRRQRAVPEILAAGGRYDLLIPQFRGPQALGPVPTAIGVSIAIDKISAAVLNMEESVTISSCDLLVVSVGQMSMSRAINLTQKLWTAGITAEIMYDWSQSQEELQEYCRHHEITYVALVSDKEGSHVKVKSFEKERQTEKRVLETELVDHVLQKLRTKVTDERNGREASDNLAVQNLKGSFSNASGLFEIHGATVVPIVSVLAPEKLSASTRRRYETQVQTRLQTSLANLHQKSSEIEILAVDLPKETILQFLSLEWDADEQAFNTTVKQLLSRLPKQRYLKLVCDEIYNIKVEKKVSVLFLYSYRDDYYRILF

SMILES | IC50 [1] | IC50
Cc1ncc(Cl)cc1S(=O)(=O)Nc1ccc(F)c(-c2cn3cnc(-c4ncc[nH]4)c3cn2)c1F [Compound 83, 5-chloro-N-[2,4-difluoro-3-[1-(1H-imidazol-2-yl)imidazo[1,5-a]pyrazin-6-yl]phenyl]-2-methylpyridine-3-sulfonamide] | < 50 nM | –
COc1ncc(Cl)cc1S(=O)(=O)Nc1ccc(F)c(-c2ccc3c(-c4ncc[nH]4)ncn3n2)c1F [Compound 85, 5-chloro-N-[2,4-difluoro-3-[5-(1H-imidazol-2-yl)imidazo[1,5-b]pyridazin-2-yl]phenyl]-2-methoxypyridine-3-sulfonamide] | < 50 nM | –
COc1ncc(Cl)cc1S(=O)(=O)Nc1ccc(F)c(-c2ccc3c(-c4nnc(C5CC5)[nH]4)ncn3c2)c1F [Compound 87, 5-chloro-N-[3-[1-(5-cyclopropyl-4H-1,2,4-triazol-3-yl)imidazo[1,5-a]pyridin-6-yl]-2,4-difluorophenyl]-2-methoxypyridine-3-sulfonamide] | < 50 nM | –
COc1ncc(Cl)cc1S(=O)(=O)Nc1ccc(F)c(-c2ccc3c(-c4nnc(C(C)C)[nH]4)ncn3c2)c1F [Compound 88, 5-chloro-N-[2,4-difluoro-3-[1-(5-isopropyl-4H-1,2,4-triazol-3-yl)imidazo[1,5-a]pyridin-6-yl]phenyl]-2-methoxypyridine-3-sulfonamide] | < 50 nM | –
CNC(=O)c1ncn2cc(-c3c(F)ccc(NS(=O)(=O)c4cc(F)cnc4OC)c3F)ncc12 [Compound 90, 6-[2,6-difluoro-3-(5-fluoro-2-methoxypyridine-3-sulfonamido)phenyl]-N-methylimidazo[1,5-a]pyrazine-1-carboxamide] | – | 50 to 500 nM
CNC(=O)c1ncn2cc(-c3c(F)ccc(NS(=O)(=O)c4cc(F)cnc4C)c3F)ncc12 [Compound 91, 6-[2,6-difluoro-3-(5-fluoro-2-methylpyridine-3-sulfonamido)phenyl]-N-methylimidazo[1,5-a]pyrazine-1-carboxamide] | – | 50 to 500 nM
CNC(=O)c1ncn2cc(-c3c(F)ccc(NS(=O)(=O)c4cc(C#N)cnc4OC)c3F)ncc12 [Compound 92, 6-[3-(5-cyano-2-methoxypyridine-3-sulfonamido)-2,6-difluorophenyl]-N-methylimidazo[1,5-a]pyrazine-1-carboxamide] | – | 50 to 500 nM
CNC(=O)c1ncn2cc(-c3c(F)ccc(NS(=O)(=O)c4cc(Cl)cnc4C)c3F)ncc12 [Compound 93, 6-[3-(5-chloro-2-methylpyridine-3-sulfonamido)-2,6-difluorophenyl]-N-methylimidazo[1,5-a]pyrazine-1-carboxamide] | < 50 nM | –
COc1ncc(Cl)cc1S(=O)(=O)Nc1ccc(F)c(-c2ccc3c(CO)ncn3c2)c1F [Compound 94, 5-chloro-N-(2,4-difluoro-3-(1-(hydroxymethyl)imidazo[1,5-a]pyridin-6-yl)phenyl)-2-methoxypyridine-3-sulfonamide] | – | 500 to 1000 nM
Cc1ncc(Cl)cc1S(=O)(=O)Nc1ccc(F)c(-c2ccc3c(-c4ncc[nH]4)ncn3n2)c1F [Compound 95, 5-chloro-N-[2,4-difluoro-3-[5-(1H-imidazol-2-yl)imidazo[1,5-b]pyridazin-2-yl]phenyl]-2-methylpyridine-3-sulfonamide] | < 50 nM | –
CNC(=O)c1ncn2c1CC[C@H](c1c(F)ccc(NS(=O)(=O)c3cc(Cl)cnc3OC)c1F)[C@@H]2C [Compound 96-1, (5S,6R)-6-[3-(5-chloro-2-methoxypyridine-3-sulfonamido)-2,6-difluorophenyl]-N,5-dimethyl-5H,6H,7H,8H-imidazo[1,5-a]pyridine-1-carboxamide] | – | 50 to 500 nM
CNC(=O)c1ncn2c1CC[C@@H](c1c(F)ccc(NS(=O)(=O)c3cc(Cl)cnc3OC)c1F)[C@H]2C [Compound 96-2, (5R,6S)-6-[3-(5-chloro-2-methoxypyridine-3-sulfonamido)-2,6-difluorophenyl]-N,5-dimethyl-5H,6H,7H,8H-imidazo[1,5-a]pyridine-1-carboxamide] | – | 500 to 1000 nM
COc1ncc(C#N)cc1S(=O)(=O)Nc1ccc(F)c(-c2ccc3c(-c4ncc[nH]4)ncn3n2)c1F [Compound 97, 5-cyano-N-[2,4-difluoro-3-[5-(1H-imidazol-2-yl)imidazo[1,5-b]pyridazin-2-yl]phenyl]-2-methoxypyridine-3-sulfonamide] | < 50 nM | –
COc1ncc(F)cc1S(=O)(=O)Nc1ccc(F)c(-c2ccc3c(-c4ncc[nH]4)ncn3n2)c1F [Compound 98, N-[2,4-difluoro-3-[5-(1H-imidazol-2-yl)imidazo[1,5-b]pyridazin-2-yl]phenyl]-5-fluoro-2-methoxypyridine-3-sulfonamide] | < 50 nM | –
COc1ncc(Cl)cc1S(=O)(=O)Nc1ccc(F)c(-c2ccc3c(-c4ccno4)ncn3c2)c1F [Compound 99, 5-chloro-N-(2,4-difluoro-3-(1-(isoxazol-5-yl)imidazo[1,5-a]pyridin-6-yl)phenyl)-2-methoxypyridine-3-sulfonamide] | < 50 nM | –
COc1ncc(Cl)cc1S(=O)(=O)Nc1ccc(F)c(-c2ccc3c(C(C)O)ncn3c2)c1F (stereo not drawn) [Compound 100, 5-chloro-N-[2,4-difluoro-3-[1-(1-hydroxyethyl)imidazo[1,5-a]pyridin-6-yl]phenyl]-2-methoxypyridine-3-sulfonamide] | – | 500 to 1000 nM
CNC(=O)c1ncn2cc(-c3c(F)ccc(NS(=O)(=O)c4cc(Cl)cnc4OC)c3Cl)ccc12 [Compound 101, 6-(2-chloro-3-((5-chloro-2-methoxypyridine)-3-sulfonamido)-6-fluorophenyl)-N-methylimidazo[1,5-a]pyridine-1-carboxamide] | < 50 nM | –
COc1ncc(Cl)cc1S(=O)(=O)Nc1ccc(F)c(-c2ccc3c(-c4nnc(C(F)(F)F)[nH]4)ncn3c2)c1F [Compound 102, 5-chloro-N-(2,4-difluoro-3-[1-[5-(trifluoromethyl)-4H-1,2,4-triazol-3-yl]imidazo[1,5-a]pyridin-6-yl]phenyl)-2-methoxypyridine-3-sulfonamide] | – | 50 to 500 nM
COc1ncc(Cl)cc1S(=O)(=O)Nc1ccc(F)c(-c2ccc3c(-c4ncc[nH]4)ncn3c2)c1Cl [Compound 103, 5-chloro-N-[2-chloro-4-fluoro-3-[1-(1H-imidazol-2-yl)imidazo[1,5-a]pyridin-6-yl]phenyl]-2-methoxypyridine-3-sulfonamide] | < 50 nM | –
COc1ncc(Cl)cc1S(=O)(=O)Nc1ccc(F)c(-c2ccc3c(-c4ncc[nH]4)ncn3c2F)c1F [Compound 104, 5-chloro-N-[2,4-difluoro-3-[5-fluoro-1-(1H-imidazol-2-yl)imidazo[1,5-a]pyridin-6-yl]phenyl]-2-methoxypyridine-3-sulfonamide] | < 50 nM | –
COc1ncc(Cl)cc1S(=O)(=O)Nc1ccc(F)c(-c2ccc3c(-c4ccn[nH]4)ncn3c2F)c1F [Compound 105, 5-chloro-N-[2,4-difluoro-3-[5-fluoro-1-(2H-pyrazol-3-yl)imidazo[1,5-a]pyridin-6-yl]phenyl]-2-methoxypyridine-3-sulfonamide] | < 50 nM | –
CNC(=O)c1ncn2cc(-c3c(F)ccc(NS(=O)(=O)c4cc(Cl)cnc4OC)c3Cl)ncc12 [Compound 106, 6-[2-chloro-3-(5-chloro-2-methoxypyridine-3-sulfonamido)-6-fluorophenyl]-N-methylimidazo[1,5-a]pyrazine-1-carboxamide] | < 50 nM | –
COc1ncc(F)cc1S(=O)(=O)Nc1ccc(F)c(-c2ccc3c(-c4ncc[nH]4)ncn3c2F)c1F [Compound 107, N-[2,4-difluoro-3-[5-fluoro-1-(1H-imidazol-2-yl)imidazo[1,5-a]pyridin-6-yl]phenyl]-5-fluoro-2-methoxypyridine-3-sulfonamide] | < 50 nM | –
Cc1ncc(F)cc1S(=O)(=O)Nc1ccc(F)c(-c2ccc3c(-c4ncc[nH]4)ncn3c2F)c1F [Compound 108, N-[2,4-difluoro-3-[5-fluoro-1-(1H-imidazol-2-yl)imidazo[1,5-a]pyridin-6-yl]phenyl]-5-fluoro-2-methylpyridine-3-sulfonamide] | < 50 nM | –
Cc1ncc(Cl)cc1S(=O)(=O)Nc1ccc(F)c(-c2ccc3c(-c4ncc[nH]4)ncn3c2F)c1F [Compound 109, 5-chloro-N-[2,4-difluoro-3-[5-fluoro-1-(1H-imidazol-2-yl)imidazo[1,5-a]pyridine-6-yl]phenyl]-2-methylpyridine-3-sulfonamide] | < 50 nM | –
COc1ncc(Cl)cc1S(=O)(=O)Nc1ccc(F)c(-c2cn3cnc(-c4nc5ccccc5[nH]4)c3cn2)c1F [Compound 110, N-[3-[1-(1H-1,3-benzodiazol-2-yl)imidazo[1,5-a]pyrazin-6-yl]-2,4-difluorophenyl]-5-chloro-2-methoxypyridine-3-sulfonamide] | < 50 nM | –
COc1ncc(F)cc1S(=O)(=O)Nc1ccc(F)c(-c2cn3cnc(-c4nc5ccccc5[nH]4)c3cn2)c1F [Compound 111, N-[3-[1-(1H-1,3-benzodiazol-2-yl)imidazo[1,5-a]pyrazin-6-yl]-2,4-difluorophenyl]-5-fluoro-2-methoxypyridine-3-sulfonamide] | < 50 nM | –
COc1ncc(C#N)cc1S(=O)(=O)Nc1ccc(F)c(-c2cn3cnc(-c4nc5ccccc5[nH]4)c3cn2)c1F [Compound 112, N-[3-[1-(1H-1,3-benzodiazol-2-yl)imidazo[1,5-a]pyrazin-6-yl]-2,4-difluorophenyl]-5-cyano-2-methoxypyridine-3-sulfonamide] | < 50 nM | –
Cc1ncc(Cl)cc1S(=O)(=O)Nc1ccc(F)c(-c2cn3cnc(-c4nc5ccccc5[nH]4)c3cn2)c1F [Compound 113, N-[3-[1-(1H-1,3-benzodiazol-2-yl)imidazo[1,5-a]pyrazin-6-yl]-2,4-difluorophenyl]-5-chloro-2-methylpyridine-3-sulfonamide] | < 50 nM | –
Cc1ncc(F)cc1S(=O)(=O)Nc1ccc(F)c(-c2cn3cnc(-c4nc5ccccc5[nH]4)c3cn2)c1F [Compound 114, N-[3-[1-(1H-1,3-benzodiazol-2-yl)imidazo[1,5-a]pyrazin-6-yl]-2,4-difluorophenyl]-5-fluoro-2-methylpyridine-3-sulfonamide] | < 50 nM | –
